Measured values: article PMC8533219, “Evaluation of the Antioxidant, Antidiabetic, and Antiplasmodial Activities of Xanthones Isolated from Garcinia forbesii and Their In Silico Studies” (Biomedicines, 2021)
“And” between values parts separate entries of the source, which are not always exact repeats. Equal values may be shown once. Read-outs that look alike come from different tables or passages of the source.

Tests used:
[1] = Ferric reducing-antioxidant power (FRAP) assay; conditions: for FRAP: reduction power
Method: The FRAP assay was determined according to the described method using 300 mM acetate buffer, 40 mM HCl, 10 mM (2,4,6 Tris(2-pyridyl)-s-triazine (TPTZ)), 20 mM FeCl3·6H2O. For standard curve comparison, a 10:1:1 (acetate buffer: TPTZ: H2O) and sample ratio 10:1:1 (acetate buffer: TPTZ: FeCl3·6H2O) were constructed. The standard curve was prepared using various concentrations of FeSO4·7H2O. The reaction mixture was incubated at 37 °C for 30 min followed by measurement of the absorbance at 593 nm. In this test, the reduction capacity of the tested compound calculated concerning the reaction signal given by the Fe^2+ solution. The FRAP value was expressed as µM Fe^2+/g ((Frap value of sample (µM) = abs (sample) × FRAP value of std (µM)/abs (std).

[2] = ABTS radical scavenging assay; conditions: for IC50: IC50 > 1000 μM = inactive
Method: The antioxidant activity was also determined by free radical ABTS (2,2″-azinobis (3-ethyl benzothiazoline-6-sulfonic acid) according to the reported procedure. In this test, 7 mM ABTS solution was prepared and mixed with a buffer solution of potassium peroxydisulfate, incubated for 16 h, and protected from light. A total of 10 μL of the sample and 1 mL of the ABTS was incubated for 4 min and measured at a wavelength of 734 nm. This experiment was performed triplo using quercetin and gallic acid as controls. The ABTS inhibitory activity was calculated by the equation [(Ab-As)/Ab] × 100%.

[3] = DPPH radical scavenging assay; conditions: for IC50: IC50 > 1000 μM = inactive
Method: DPPH (1,1-diphenyl-2-picrylhydrazyl) was used for the antioxidant test using quercetin and gallic acid as controls. The compounds were diluted at concentrations of 159.73, 79.87, 39.93, 19.97, 9.98 µg/mL. A total 1 mL of DPPH 6 × 10^−5 M solution, complete with 33 µL of the compound, was incubated at 37 °C for 20 min. […] The radical inhibitory activity was calculated using the equation [(Ab-As)/Ab] × 100%.

[4] = biological target: T1, Porcine pancreatic α-amylase (Sus scrofa, UniProt P00690); experiment: α-Amylase inhibitory activity; format: biochemical; conditions: read-out: α-Amylase Starch IC50
T1 sequence (P00690 16-511): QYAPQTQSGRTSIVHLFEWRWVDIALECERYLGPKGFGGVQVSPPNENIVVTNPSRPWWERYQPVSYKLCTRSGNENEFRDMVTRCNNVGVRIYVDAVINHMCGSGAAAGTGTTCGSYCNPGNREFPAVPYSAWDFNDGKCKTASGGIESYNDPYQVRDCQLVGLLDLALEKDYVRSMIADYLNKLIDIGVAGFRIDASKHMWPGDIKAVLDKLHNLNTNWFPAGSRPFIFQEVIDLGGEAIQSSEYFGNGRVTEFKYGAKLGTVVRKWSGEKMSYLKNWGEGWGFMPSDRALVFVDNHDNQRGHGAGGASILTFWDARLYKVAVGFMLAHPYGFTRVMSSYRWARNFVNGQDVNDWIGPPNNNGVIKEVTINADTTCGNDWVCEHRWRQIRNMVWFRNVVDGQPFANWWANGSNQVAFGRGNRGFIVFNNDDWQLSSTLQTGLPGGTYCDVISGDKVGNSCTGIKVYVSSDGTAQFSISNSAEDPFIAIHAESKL
Method: The modified α-amylase enzyme inhibition test was conducted for antidiabetic activity evaluation. A total of 10 mg sample was dissolved in 1 mL DMSO and 0.1 M phosphate buffer and 5 mg α-amylase solution (Porcine pancreatic α-amylase) in 1 mL phosphate buffer pH 6.9 was added. A 100 mg of potato starch (substrate) was heated in 5 mL of 0.1 M phosphate buffer for 5 min and cooled to room temperature. Then, 20 µL of the sample and 50 µL of substrate were mixed into 30 µL of phosphate buffer. The mixture was pre-incubated for 5 min followed by the addition of 20 µL of α-amylase enzyme and then incubation at 37 °C for 15 min. The color development was performed by adding 50 µL of 1M HCl and 50 µL of 10% iodine solution. Finally, the absorbance was measured at a wavelength of 650 nm.

[5] = tested on: rat intestinal α-glucosidase; experiment: Rat intestinal α-glucosidase inhibitory activity; format: biochemical; conditions: IC50 > 1000 μM = inactive
Method: The inhibitory activity of rat intestinal α-glucosidase was determined according to previously reported method with slight modifications. This procedure was performed by classifying four mixtures in different groups. The mixture (1) labelled “Blank of enzyme reaction” contained the mixture and DMSO (10 µL), sodium phosphate buffer (50 µL), glucose kit (80 µL), enzyme (20 µL) and substrate (20 µL maltose, sucrose 20 µL). A 10 µL of sample and samples with various concentrations of compounds was added to the well Plates (3) and (4). A 50 µL of sodium phosphate buffer (pH 6.9) was then added to well Plates (1) and (3), and a 30 µL of the buffer was added to well Plates (2) and (4), respectively. The substrate (maltose, 20 µL; sucrose 20 µL) was then added to the Plates (2) and (4). A glucose kit (80 µL each) and the enzyme (20 µL) were added to all plates and were incubated for 10 min for maltose and 40 min for sucrose. Finally, the absorbance was then measured at λ = 520 nm using a microplate reader (BioTek ELx800TM, BioTek Instruments, Inc., Winooski, VT, USA).

[6] = tested on: P. falciparum strain 3D7; experiment: In vitro antiplasmodial assay (pLDH method); format: cell-based; conditions: Plasmodium falciparum; for inhibition at 10 µg/mL: read-out: % Inhibition (10 μg/mL)
Method: The parasites used in this test were synchronized (Ring stage) with ± 0.3% parasitemia (2% hematocrit). […] The well plates were put in the chamber with mix gas atmosphere (O2 5%, CO2 5% and N2 90%) and incubated for 72 h at 37 °C. After that, the plate was harvested and stored at −30 °C. After 24 h, the pLDH assay was performed by reading the absorbance at 650 nm using a SpectraMax Paradigm® Multi-Mode microplate reader.

[7] = biological target: α-glucosidase; conditions: cited from earlier work
[8] = tested on: Plasmodium falciparum; conditions: read-out: IC50 against Plasmodium falciparum; cited from earlier work
[9] = parameters: method as in PMID 33711431; conditions: read-out: DPPH scavenging IC50; cited from earlier work
[10] = substrate maltose, read-out: α-Glucosidase Maltose IC50
[11] = substrate sucrose, read-out: α-Glucosidase Sucrose IC50
[12] = P. falciparum 3D7, 10 μg/mL, 72 h
[13] = P. falciparum 3D7, 72 h, read-out: IC50

Molecule: COc1cc(C)c2c(=O)c3c(O)cc(OC)cc3oc2c1 [Compound 1, lichexanthone]
- FRAP [1]: 5.7 ± 0.57 µM Fe^2+/g
- IC50 [2]: > 1000 µM
- IC50 [3]: > 1000 µM
- IC50 [4]: > 1000 µM
- α-Glucosidase Maltose IC50 ([5]; substrate maltose): inactive
- IC50 [5, 10]: > 1000 µM
- α-Glucosidase Sucrose IC50 ([5]; substrate sucrose): inactive
- IC50 [5, 11]: > 1000 µM
- inhibition at 10 µg/mL [6, 12]: < 10%

Molecule: CC(C)=CCC/C(C)=C/Cc1c(O)c(O)cc2oc3cc(O)c(CC=C(C)C)c(O)c3c(=O)c12 [norcowanin]
- IC50 [7]: 1.7 µM

Molecule: O=C(O)c1cc(O)c(O)c(O)c1 [Gallic acid, reference compound]
- ABTS % Inhibition (99 μg/mL) [2]: 96.30 ± 0.01%
- IC50 [2]: 0.7 ± 0.01 µM
- DPPH % Inhibition (159.7 μg/mL) [3]: 97.21± 0.01%
- IC50 [3]: 3 ± 0.01 µM

Molecule: subelliptenone F
- IC50 [7]: 4.1 µM

Molecule: C=CC(C)(C)c1cc(O)c2oc3c4c(ccc3c(=O)c2c1O)C=CC(C)(C)O4 [Compound 4, garciniaxanthone B]
- FRAP [1]: 192.7 µM Fe^2+/g and 192.7 ± 0.77 µM Fe^2+/g
- ABTS % Inhibition (99 μg/mL) [2]: 96.15 ± 0.01%
- IC50 [2]: 7.9 ± 0.01 µM
- DPPH % Inhibition (159.7 μg/mL) [3]: 95.38 ± 0.08%
- IC50 [3]: 14.1 ± 0.07 µM
- IC50 [4]: 10.8 ± 0.04 µM
- IC50 [5, 10]: 139.4 ± 1.21 µM
- IC50 [5, 11]: 75.9 ± 2.11 µM
- inhibition at 10 µg/mL [6, 12]: < 10%

Molecule: CCN(CC)CCCC(C)Nc1ccnc2cc(Cl)ccc12 (stereo not drawn) [Chloroquine, reference compound]
- IC50 [8]: 0.3 µM
- IC50 ([6]; 3D7, 72 h): 0.006 ± 0.01 µM
- inhibition at 10 µg/mL ([6]; 3D7, 72 h): 98.8 ± 0.25%

Molecule: CC(C)=CCc1c(O)cc2oc3c(CC=C(C)C)c(O)c(O)c(CC=C(C)C)c3c(=O)c2c1O [garcinone E]
- IC50 [9]: 63.1 µM

Molecule: C[C@H]1O[C@H](O[C@H]2[C@H](O)[C@@H](O)[C@@H](O[C@H]3[C@H](O)[C@@H](O)C(O)O[C@@H]3CO)O[C@@H]2CO)[C@H](O)[C@@H](O)[C@@H]1N[C@H]1C=C(CO)[C@@H](O)[C@H](O)[C@H]1O (stereo partly drawn) [Acarbose, reference compound]
- IC50 [5, 10]: 3.4 ± 0.27 µM
- IC50 [5, 11]: 4.6 ± 0.51 µM

Molecule: C=CC(C)(C)c1cc(O)c(O)c2c(=O)c3cc4c(c(O)c3oc12)OC(C)(C)C=C4 [Compound 2, subelliptenone H]
- FRAP [1]: 166.3 µM Fe^2+/g and 166.3 ± 1.47 µM Fe^2+/g
- ABTS % Inhibition (99 μg/mL) [2]: 97.29 ± 0.04%
- IC50 [2]: 2.7 ± 0.05 µM
- DPPH % Inhibition (159.7 μg/mL) [3]: 95.29 ± 0.05%
- IC50 [3]: 19.4 ± 0.15 µM
- IC50 [4]: 41.3 ± 1.24 µM
- IC50 [5, 11]: 43.8 ± 1.51 µM
- inhibition at 10 µg/mL [6, 12]: 86.8 ± 0.33%
- IC50 [6, 13]: 3.3 ± 0.04 µM

Molecule: O=c1c2cc(O)c(O)cc2oc2cc(O)cc(O)c12 [1,3,6,7-tetrahydroxyxanthone]
- IC50 [9]: 28.4 µM

Molecule: O=c1c(O)c(-c2ccc(O)c(O)c2)oc2cc(O)cc(O)c12 [Quercetin, reference compound]
- ABTS % Inhibition (99 μg/mL) [2]: 97.58 ± 0.01%
- IC50 [2]: 0.17 ± 0.01 µM
- DPPH % Inhibition (159.7 μg/mL) [3]: 96.34 ± 0.01%
- IC50 [3]: 4.1 ± 0.01 µM

Molecule: C=CC(C)(C)c1cc(O)c2oc3c(O)cccc3c(=O)c2c1O [Compound 3, 12b-hydroxy-des-D-garcigerrin A]
- FRAP [1]: 203.9 ± 1.19 µM Fe^2+/g
- Iron reducing power, fold greater than ascorbic acid ([1]; relative to ascorbic acid): approximately 6 fold
- ABTS % Inhibition (99 μg/mL) [2]: 98.31 ± 0.05%
- IC50 [2]: 0.05 ± 0.01 µM
- ABTS IC50, fold lower than quercetin ([2]; relative to quercetin): 4 fold
- DPPH % Inhibition (159.7 μg/mL) [3]: 96.83 ± 0.03%
- IC50 [3]: 18.9 ± 0.1 µM
- IC50 [4]: 28.7 ± 0.35 µM
- IC50 [5, 10]: 109 ± 1.31 µM
- IC50 [5, 11]: 79.6 ± 2.01 µM
- inhibition at 10 µg/mL [6, 12]: 87.9 ± 0.23%
- IC50 [6, 13]: 5 ± 0.04 µM

Molecule: garcinoxanthones SV
- IC50 [9]: 68.5 µM

Molecule: O=C1O[C@H]([C@@H](O)CO)C(O)=C1O [Ascorbic acid, reference compound]
- FRAP [1]: 30.6 ± 0.27 µM Fe^2+/g
- FRAP ([1]; listed as ascorbic acid): 30.6 µM Fe^2+/g
- IC50 [9]: 48 µM

Molecule: C=CC(C)(C)c1cc(O)c2oc3c4c(ccc3c(=O)c2c1O)[C@H](O)[C@H](O)C(C)(C)O4 [Compound 5, garcigerin A]
- FRAP [1]: 187.8 µM Fe^2+/g and 187.8 ± 1.36 µM Fe^2+/g
- ABTS % Inhibition (99 μg/mL) [2]: 97.40 ± 0.03%
- IC50 [2]: 6.5 ± 0.02 µM
- DPPH % Inhibition (159.7 μg/mL) [3]: 96.60 ± 0.05%
- IC50 [3]: 20.4 ± 0.22 µM
- IC50 [4]: 18.7 ± 0.54 µM
- IC50 [5, 10]: 91 ± 1.14 µM
- IC50 [5, 11]: 37.4 ± 1.2 µM
- inhibition at 10 µg/mL [6, 12]: < 10%
